Measured values as given in patent US20220017833A1, “Methods and Compositions for Scavenging Sulfides from Hydrocarbon Fluids and Aqueous Streams” (Nexgen Oilfield Chemicals, LLC, priority 2019, published 2022).

Columns and labels:
[1] = Short Reaction Time Capacity Test; conditions: for Min/Eq BT / Min/Eq FD / Min to BT / Min to FD: 20 g test; for Min to BT / Min to FD: 3.00 g BuOH, GIDA 6.68 g as GID, 3.32 g water
Description: (§1) Referring now to FIG. 1, therein is schematically depicted a sulfide scavenger testing system 100 comprising a gas source 2, a flow regulator 4, gas treatment vessel 6, and a sulfide measurement device 8. In one testing embodiment, gas (not shown) is flowed from gas source 2 via gas feed piping 10 into flow regulator 4, which regulates gas flow to gas treatment vessel 6 via regulated gas feed piping 12. The regulated gas flows into gas treatment vessel 6 via a bottom inlet 14 thereof, where it comes into contact with a volume of liquid 16 comprising a sulfide scavenger system (not separately labeled). The gas, having been treated by the liquid, flows out of a top end 18 of gas treatment vessel 6 and flows into sulfide measurement device 8 via treated gas outlet piping 20.
In one embodiment, gas flow from the flow regulator 4 is controlled such that the gas is flowed into the gas treatment vessel 6 at a flow rate of 100 mL/min. up to 500 mL/min. In one embodiment, a gas sparging device, such as a fine pore frit (not shown), is utilized to better distribute the gas into the scavenger liquid. In one embodiment, the gas treatment vessel 6 contains about 20 g of a liquid H2S scavenger, such as one or more diaminols/diaminacetals in a chemical system as described above. In one aspect, to the extent possible, H2S and/or CO2 are scavenged from the gas by the scavenger and the treated (“sweet”) gas exits top end 18 of treatment vessel 6. In one embodiment, sulfide measurement device 8 monitors the concentration of H2S leaving treatment vessel 6. in the gas phase. In other embodiments (not shown), a CO2 measurement device may be similarly employed to monitor the concentration of CO2 leaving treatment vessel 6 in the gas phase.
(§2) In one embodiment, gas is flowed through sulfide scavenger testing system 100 until the outlet H2S concentration reaches a 4,000 ppm target, at which point the test is concluded. This relative time duration before the target is reached is used to compare H2S scavenger capacity given the kinetics of each sulfide scavenger system. The longer the duration, the better the capacity.
(§3) The fine bubbles produced rise slowly, providing plenty of time, plenty of surface area, and a short path through which the H2S must diffuse to the scavenger in the liquid 16. Detector 8 on the outlet line 20 is used to measure H2S concentration in the exiting gas. The times to first detection (FD), at a threshold of 15 ppm, and to complete breakthrough (BT), at the detector saturation of 4000 ppm (0.4%), are recorded. This test is designed to measure the effective scavenging capacity in applications with long contact times.
This test is the same as the Long Reaction Time Capacity Test, but without the gas sparging device, so as to produce larger bubbles, and at a higher feed rate of 200 mL/min, after the first 8 minutes at 100 mL/min. The larger bubbles rise quickly through the liquid 16, providing little time, little surface area, and a long path through which the H2S must diffuse to the scavenger in the liquid. This test is designed to measure the effective scavenging capacity in applications with short contact times. It is far more reaction rate dependent than the Long Reaction Time Capacity and so is a more critical and differentiating test.
With triazine, one H2S reacts twice with the same molecule of triazine, replacing one amine, so the rate is “first order”, meaning proportional to the concentration of triazine.

[2] = operational testing in a natural gas production facility; conditions: natural gas production facility
Protocol: In operational testing in a natural gas production facility, both an anhydrous glyoxy isopropyl aminacetal (GIDAc) scavenging system and an aqueous glyoxy isopropyl diaminol (GIDA) scavenging system were tested in comparison with an industry standard triazine-based scavenger.

[3] = Long Reaction Time Capacity Test; conditions: for Min/Eq BT / Min/Eq FD / Min to BT / Min to FD: 20 g test
Description: as §1
In one embodiment, the gas contained in gas source 2 consists substantially of about 15% H2S, and about 3% CO2, with the remainder being Methane. In one embodiment, gas flow from the flow regulator 4 is controlled such that the gas is flowed into the gas treatment vessel 6 at a flow rate of 100 mL/min. up to 500 mL/min. In one embodiment, a gas sparging device, such as a fine pore frit (not shown), is utilized to better distribute the gas into the scavenger liquid. In one embodiment, the gas treatment vessel 6 contains about 20 g of a liquid H2S scavenger, such as one or more diaminols/diaminacetals in a chemical system as described above. In one aspect, to the extent possible, H2S and/or CO2 are scavenged from the gas by the scavenger and the treated (“sweet”) gas exits top end 18 of treatment vessel 6. In one embodiment, sulfide measurement device 8 monitors the concentration of H2S leaving treatment vessel 6. in the gas phase. In other embodiments (not shown), a CO2 measurement device may be similarly employed to monitor the concentration of CO2 leaving treatment vessel 6 in the gas phase.
as §2
as §3, with “In this test, methane containing 15% H2S and 3% CO2 by weight is sparged via a fine pore frit (not shown) at 100 mL/min through a column of 20 g of scavenger solution (See FIG. 1). The fine” for “The fine”
Note that the true total capacity of a scavenger with infinite time to react is simply equal to the stoichiometry of the reaction—the moles of H2S consumable per mole of scavenging molecule, which can be calculated. This Long Reaction Time Capacity measurement falls short of that ultimate stoichiometric capacity and so is still reaction rate dependent, just less so than the Short Reaction Time Capacity Test.

[4] = Eq/test GIDAc 0.114, GIDA 0.076 (8.00 g MeOH, 2.00 g BuOH)
[5] = Eq/test Triazine 0.068, GIDAc 0.157, GIDA 0.076 (7.50 g MeOH, 2.50 g BuOH)
[6] = GIDAc 8.00 g as GID, 9.00 g MeOH, 8.00 g MeOH, 2.00 g BuOH
[7] = Triazine 7.50 g + 12.50 g water, GIDAc 11.00 g as GID, 6.00 g MeOH, 7.50 g MeOH, 2.50 g BuOH
[8] = Short Reaction Time Capacity Test, Table 2 compositions
[9] = Eq/test Triazine 0.068, GIDAc 0.185, GIDA 0.076
[10] = GIDAc 9.00 g as GID + 11.00 g MeOH
[11] = Triazine 7.50 g + 12.50 g water, GIDAc 13.00 g as GID + 7.00 g MeOH, GIDA 6.68 g as GID, 3.32 g water, 8.00 g MeOH, 2.00 g BuOH

## COC(NC(C)C)C(NC(C)C)OC (stereo not drawn) [GIDAc]
[1]; [4]
  Min/Eq BT: 438 Min/Eq
  Min/Eq FD: 368 Min/Eq
[1]; [5]
  Min/Eq BT: 376 Min/Eq
  Min/Eq FD: 319 Min/Eq
[1]; [6]
  Min to BT: 50 min
  Min to FD: 42 min
[1]; [7]
  Min to BT: 59 min
  Min to FD: 50 min
[1]; Graph 1 (FIG. 3)
  molar capacity at short reaction times (comparison, accounting for molar concentration): lower molar capacity at short reaction times
[1]; [8]
  contribution to the BT capacity (coefficient of best fit equation): 404 minutes per equivalent
  contribution to the FD capacity (coefficient of best fit equation): 324 minutes per equivalent
[2]
  employable in scavenging H2S from natural gas: employable
[3]; [9]
  Min/Eq BT: 707 Min/Eq
  Min/Eq FD: 566 Min/Eq
[3]; GIDAc 0.128 Eq/test
  Min/Eq BT: 771 Min/Eq
  Min/Eq FD: 592 Min/Eq
[3]; [10]
  Min to BT: 99 min
  Min to FD: 76 min
[3]; [11]
  Min to BT: 131 min
  Min to FD: 105 min
[3]; Graph 1 (FIG. 3)
  molar capacity at long reaction times (comparison, accounting for molar concentration): the same capacity as GIDA at long reaction times
